This note sets out measurements from publication PMC10698726 (Molecular Pharmaceutics, 2023).

What is called inhibition is the change of the read-out against control, counted positive when it falls. In general, IC50 refers to the concentration that gives 50% inhibition.

Read-outs that look alike come from different tables or passages of the source.

One series addresses T1, OCT2 (Homo sapiens, UniProt O15244).
T1 sequence (O15244 1-555): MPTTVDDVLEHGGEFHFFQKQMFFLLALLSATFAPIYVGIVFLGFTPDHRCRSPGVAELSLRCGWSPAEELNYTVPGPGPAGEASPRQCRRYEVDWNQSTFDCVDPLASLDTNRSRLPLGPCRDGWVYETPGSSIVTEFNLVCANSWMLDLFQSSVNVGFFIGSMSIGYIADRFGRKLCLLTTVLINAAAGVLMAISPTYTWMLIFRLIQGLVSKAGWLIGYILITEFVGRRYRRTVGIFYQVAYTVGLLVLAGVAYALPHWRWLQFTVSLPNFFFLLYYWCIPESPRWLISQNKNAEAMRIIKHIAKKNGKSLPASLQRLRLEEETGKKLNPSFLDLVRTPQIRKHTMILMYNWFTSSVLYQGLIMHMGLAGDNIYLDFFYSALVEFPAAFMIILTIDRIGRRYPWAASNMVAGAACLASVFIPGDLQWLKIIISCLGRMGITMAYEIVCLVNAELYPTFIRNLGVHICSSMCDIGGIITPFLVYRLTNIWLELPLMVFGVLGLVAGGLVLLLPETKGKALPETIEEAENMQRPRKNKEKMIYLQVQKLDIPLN
The series can be described thus: Inhibition of model substrate uptake in OCT2-overexpressing HEK293 cells. As to conditions: 5 min; for inhibition at 5 min, 20 μM: human, OCT2-overexpressing HEK293 cells; for inhibition at 5 min, 20 μM / (S,S)-Ethambutol inhibition [%] / ASP+ inhibition [%] / N-Ethyllidocaine inhibition [%]: OCT2, 20 μM inhibitor.

Another series deals with T2, OCT3 (Homo sapiens, UniProt O75751).
T2 construct: expressed in transfected cells; host or cells: HEK293
T2 sequence (O75751 1-556): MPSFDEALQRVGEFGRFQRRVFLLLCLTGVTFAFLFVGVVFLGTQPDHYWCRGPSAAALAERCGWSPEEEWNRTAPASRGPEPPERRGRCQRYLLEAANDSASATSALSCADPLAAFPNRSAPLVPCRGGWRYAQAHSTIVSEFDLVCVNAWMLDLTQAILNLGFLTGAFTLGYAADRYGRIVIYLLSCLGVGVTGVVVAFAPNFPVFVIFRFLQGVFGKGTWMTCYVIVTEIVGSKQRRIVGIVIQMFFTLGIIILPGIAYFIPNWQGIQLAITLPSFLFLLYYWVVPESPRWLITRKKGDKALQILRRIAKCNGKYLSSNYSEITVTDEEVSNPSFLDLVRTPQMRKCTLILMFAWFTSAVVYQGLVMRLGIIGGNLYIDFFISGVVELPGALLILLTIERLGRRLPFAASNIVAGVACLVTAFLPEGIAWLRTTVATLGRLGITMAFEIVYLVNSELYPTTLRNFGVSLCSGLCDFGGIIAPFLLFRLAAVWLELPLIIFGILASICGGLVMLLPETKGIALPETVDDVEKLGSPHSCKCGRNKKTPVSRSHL
Briefly: Inhibition of model substrate uptake in OCT3-overexpressing HEK293 cells. Type of series: cell-based. As to conditions: for inhibition at 20 µM / (S)-Zolmitriptan inhibition [%] / (S,S)-Ethambutol inhibition [%] / ASP+ inhibition [%]: 20 μM inhibitor; for (S)-Zolmitriptan inhibition [%] / (S,S)-Ethambutol inhibition [%] / ASP+ inhibition [%]: OCT3. The method in brief: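 Transporter-overexpressing HEK293 cells were incubated 5 min in HBSS+ with 2 μM model substrate, with or without 20 μM inhibitor or increasing inhibitor concentrations. Uptake was read as ASP^+ fluorescence or by LC–MS/MS, with empty-vector uptake subtracted. IC50 came from a Hill fit of activity versus log concentration.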

The next series has as its target T3, OCT1 (Homo sapiens, UniProt O15245).
T3 sequence (O15245 1-554): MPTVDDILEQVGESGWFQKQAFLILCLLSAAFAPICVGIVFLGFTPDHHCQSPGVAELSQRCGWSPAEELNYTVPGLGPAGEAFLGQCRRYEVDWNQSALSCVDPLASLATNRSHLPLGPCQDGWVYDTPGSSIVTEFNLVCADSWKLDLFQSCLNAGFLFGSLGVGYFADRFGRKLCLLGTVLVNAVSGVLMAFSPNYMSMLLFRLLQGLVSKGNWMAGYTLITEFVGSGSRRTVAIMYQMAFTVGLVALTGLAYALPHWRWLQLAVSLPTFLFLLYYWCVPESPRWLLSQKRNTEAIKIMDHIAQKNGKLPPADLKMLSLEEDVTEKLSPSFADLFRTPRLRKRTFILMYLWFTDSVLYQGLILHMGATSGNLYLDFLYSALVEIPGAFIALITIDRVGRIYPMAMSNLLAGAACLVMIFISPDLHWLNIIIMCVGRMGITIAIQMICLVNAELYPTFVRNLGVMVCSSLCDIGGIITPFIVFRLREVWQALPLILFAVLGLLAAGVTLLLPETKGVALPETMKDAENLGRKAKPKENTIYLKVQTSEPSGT
The series can be described thus: Inhibition of model substrate uptake in OCT1-overexpressing HEK293 cells. It is filed as cell-based. Also noted: expressed in transfected cells; host or cells: HEK293. As to conditions: 5 min; for inhibition at 5 min, 20 μM: human, OCT1-overexpressing HEK293 cells; for inhibition at 5 min, 20 μM / (S,S)-Ethambutol inhibition [%] / ASP+ inhibition [%] / Sumatriptan inhibition [%]: OCT1, 20 μM inhibitor. As to the method: Koepsell and Gorbulev (University of Würzburg, Germany).
Fluorescence quantification was performed in technical duplicates.

[1] abbreviates: pH 7.4, probe (S,S)-ethambutol (2 μM), (S,S)-Ethambutol inhibition [%], 2 μM (S,S)-ethambutol.
The mark [2] stands for this setting: pH 7.4, probe ASP+ (2 μM), ASP+ inhibition [%], 2 μM ASP+.
Where [3] appears, read: pH 7.4, probe N-ethyllidocaine (2 μM), N-Ethyllidocaine inhibition [%], 2 μM N-ethyllidocaine.
Setting [4] is: HEK293, 5 min, read-out: (S)-Zolmitriptan inhibition [%], OCT3, 2 μM (S)-zolmitriptan, 5 min.
[5] abbreviates: HEK293, 5 min, read-out: (S,S)-Ethambutol inhibition [%], OCT3, 2 μM (S,S)-ethambutol, 5 min.
Where [6] appears, read: HEK293, OCT3, 2 μM ASP+, 5 min, read-out: ASP+ inhibition [%].
The mark [7] stands for this setting: pH 7.4, probe ASP+ (2 μM), 2 μM ASP+, mean of three experiments, read-out: ASP+ inhibition [%].
Where [8] appears, read: pH 7.4, probe sumatriptan (2 μM), 2 μM sumatriptan, read-out: Sumatriptan inhibition [%].
Setting [9] is: 2 μM ASP+, mean of three experiments.

Turning to `Cc1cccc(C)c1OC[C@H](C)N` [(S)-Mexiletine], the inhibition at 5 min, 20 μM stood at 58.7% at OCT2 (setting [1]); 52.9% at OCT2 (setting [2]); 51.3% against OCT2 (setting [3]); 78% against OCT1 (setting [1]); 40.1% on OCT1 (setting [7]); 84.3% at OCT1 (setting [8]). For the same molecule, the inhibition at 20 µM is 30% on OCT3 (setting [4]), 11.8% on OCT3 (setting [5]) and -6.6% at OCT3 (setting [6]).
Regarding `NC[C@@H](O)c1ccc(O)c(O)c1` [(S)-Norepinephrine], the “(S,S)-Ethambutol inhibition [%]” value on OCT2 (2 μM (S,S)-ethambutol) worked out at 5.1%; on OCT3 (2 μM (S,S)-ethambutol, 5 min) it was 12.5%; at OCT1 (2 μM (S,S)-ethambutol) it was 6.1%. Further, the “ASP+ inhibition [%]” value is 20.5% on OCT2 (2 μM ASP+); -3.5% on OCT3 (2 μM ASP+, 5 min); -3.3% at OCT1 (setting [9]). In addition, on OCT2 (2 μM N-ethyllidocaine), the “N-Ethyllidocaine inhibition [%]” value was found to be 7.1%. The “(S)-Zolmitriptan inhibition [%]” value at OCT3 (2 μM (S)-zolmitriptan, 5 min) is on record as -6.6%. Besides, the “Sumatriptan inhibition [%]” value at OCT1 (2 μM sumatriptan) is given as 6.6%.
Turning to `CCN(CC)CC#CCOC(=O)[C@@](O)(c1ccccc1)C1CCCCC1` [(S)-Oxybutynine], the IC50 is 20.1 µM on OCT2 (IC50, OCT2, Table S5, 2 μM ASP+ as model substrate); 40 µM against OCT3 (IC50, OCT3, Table S5, 2 μM ASP+ or ethambutol as model substrate, 5 min); 141 µM against OCT1 (IC50, OCT1, Table S5, 2 μM ASP+ or ethambutol as model substrate). Besides, the “(S,S)-Ethambutol inhibition [%]” value is reported as 24.5% at OCT2 (2 μM (S,S)-ethambutol); 75.7% at OCT3 (2 μM (S,S)-ethambutol, 5 min); 96.3% at OCT1 (2 μM (S,S)-ethambutol). The “ASP+ inhibition [%]” value turned out to be 92.8% on OCT2 (2 μM ASP+); 40.5% on OCT3 (2 μM ASP+, 5 min); 59.3% at OCT1 (setting [9]). The “N-Ethyllidocaine inhibition [%]” value on OCT2 (2 μM N-ethyllidocaine) was determined as 48.6%. Further, at OCT3 (2 μM (S)-zolmitriptan, 5 min), the “(S)-Zolmitriptan inhibition [%]” value worked out at 65.2%. Moreover, the “Sumatriptan inhibition [%]” value on OCT1 (2 μM sumatriptan) amounted to 83.5%.
Turning to `CNC[C@@H](O)c1cccc(O)c1` [(S)-Phenylephrine], the inhibition at 5 min, 20 μM against OCT2 (setting [1]) is 5.5%; on OCT2 (setting [2]), 5.4%; on OCT2 (setting [3]) it was -2.7%; against OCT1 (setting [1]) it was 6.2%; at OCT1 (setting [7]), 5.2%; on OCT1 (setting [8]) it was -5.1%. Also, the inhibition at 20 µM at OCT3 (setting [4]) was -3.9%; on OCT3 (setting [5]), 5.6%; on OCT3 (setting [6]), 2.7%.
Take `CC(C)NC[C@H](O)COc1cccc2ccccc12` [(S)-Propranolol]: the “(S,S)-Ethambutol inhibition [%]” value on OCT2 (2 μM (S,S)-ethambutol) worked out at 28.4%; at OCT3 (2 μM (S,S)-ethambutol, 5 min) it was 32.0%; on OCT1 (2 μM (S,S)-ethambutol), 74.3%. The “ASP+ inhibition [%]” value is 57.3% at OCT2 (2 μM ASP+); -2.9% on OCT3 (2 μM ASP+, 5 min); 40.6% on OCT1 (setting [9]). Further, at OCT2 (2 μM N-ethyllidocaine), the “N-Ethyllidocaine inhibition [%]” value worked out at 32.4%. Also, the IC50 on OCT3 (OCT3, Table 1, read-out: IC50) came out at 69 µM. Moreover, the “(S)-Zolmitriptan inhibition [%]” value at OCT3 (2 μM (S)-zolmitriptan, 5 min) is reported as 38.2%. Besides, at OCT1 (2 μM sumatriptan), the “Sumatriptan inhibition [%]” value came to 82.8%.
For the molecule `C#CCN[C@H]1CCc2ccccc21` [(S)-Rasagiline], the inhibition at 5 min, 20 μM at OCT2 (setting [1]) was 57%; against OCT2 (setting [2]) it was 59.6%; against OCT2 (setting [3]) it was 59.5%. Further, the “(S)-Zolmitriptan inhibition [%]” value at OCT3 (2 μM (S)-zolmitriptan, 5 min) turned out to be 6.7%. The “(S,S)-Ethambutol inhibition [%]” value at OCT3 (2 μM (S,S)-ethambutol, 5 min) came out at 8.8%; at OCT1 (2 μM (S,S)-ethambutol), 37.5%. In addition, the “ASP+ inhibition [%]” value on OCT3 (2 μM ASP+, 5 min) is on record as -7.7%; on OCT1 (setting [9]) it was 6.9%. The “Sumatriptan inhibition [%]” value on OCT1 (2 μM sumatriptan) is given as 50.6%.
On to `CC(C)(C)NC[C@@H](O)c1ccc(O)c(CO)c1` [(S)-Salbutamol], for which the “(S,S)-Ethambutol inhibition [%]” value at OCT2 (2 μM (S,S)-ethambutol) is 3.0%; on OCT3 (2 μM (S,S)-ethambutol, 5 min), 14.5%; at OCT1 (2 μM (S,S)-ethambutol), 9.3%. Also, the “ASP+ inhibition [%]” value at OCT2 (2 μM ASP+) is given as -2.8%; at OCT3 (2 μM ASP+, 5 min) it was 1.3%; at OCT1 (setting [9]), 6.1%. For the same molecule, the “N-Ethyllidocaine inhibition [%]” value at OCT2 (2 μM N-ethyllidocaine) was -17.4%. Moreover, the “(S)-Zolmitriptan inhibition [%]” value on OCT3 (2 μM (S)-zolmitriptan, 5 min) was -3.4%. Besides, the “Sumatriptan inhibition [%]” value at OCT1 (2 μM sumatriptan) is listed as -10.2%.
